The values that follow come from patent US7098348B2, “Triptolide derivatives as immunomodulators and anticancer agents” (priority 2002, dated 2006).

Test [1] has as its system Jurkat human T lymphocyte cell line. In words: Annexin V apoptosis assay. Conditions: 24 hours, compound pre-incubated in human serum 48 hours, FIG. 1. Format: cell-based. Here is the method:
(§1) Pooled human serum was stored in aliquots at −80° C. Test compounds were added at 20 mM to thawed human serum in 1.5 ml microfuge tubes and incubated at 37° C. in a water bath for 48 hours. The test samples were placed on ice until dilution for the bioassay. Controls consisted of the compounds incubated in complete tissue culture medium (RPMI 1640 medium plus 5% heat-inactivated fetal calf serum, 1% HEPES, 1% pen/strep, 1% glutamine) rather than human serum.
Test samples (incubated in human serum as described in section A) were diluted to 1 mM in complete tissue culture medium. Aliquots were placed in microculture plates and serial dilutions were prepared so that the final concentration would encompass the range of 2 to 6,000 nM with half-log increments. […]
After 24 hours, the plates were centrifuged to pellet the cells, and the cells were washed twice with 2% heat-inactivated fetal calf serum in PBS. […] The contents of the wells were individually transferred into test tubes, and apoptosis was analyzed using a FACSCalibur flow cytometer (BD Immunocytometry Systems, San Jose, Calif.). Cells positive for Annexin V binding were considered to be apoptotic, and the data were calculated as percent apoptotic cells. […]

Test [2] concerns IL-2 production by Jurkat cells. Put plainly: IL-2 production assay. Format: cell-based. Conditions: Jurkat cells stimulated with anti-CD3 antibody and PMA, 24 hours; compound pre-incubated in human serum; FIG. 2. Here is the method: as §1
Test samples, incubated in human serum as described in Example 2A, were diluted to 1 mM in complete tissue culture medium. Aliquots were placed in microculture plates that had been coated with anti-CD3 antibody (used to stimulate the production of IL-2 by Jurkat cells), and serial dilutions were prepared so that the final concentration would encompass the range of 0.001 to 10,000 nM in log increments. […] The stored supernatants were analyzed for human IL-2 concentration using the Luminex 100 (Luminex Corporation, Austin, Tex.), Luminex microspheres coupled with anti-IL-2 capture antibody, and fluorochrome-coupled anti-IL-2 detection antibody. The data were expressed as ng/ml of IL-2. […]

Test [3] concerns HT-29 human colon cancer cell line. The following applies: HT-29 tumor xenografts, U.S. Pat. No. 6,620,843, cited from earlier work.

Regarding `CC(C)[C@]12O[C@H]1[C@@H]1O[C@]13[C@]1(O[C@H]1C[C@H]1C4=C(CC[C@@]13C)C(=O)OC4)[C@]2(C)O` [PG670, 14-C-methyltriptolide], in test [1], the “induction of apoptosis (percent apoptotic cells, Annexin V)” value is reported as “dose-dependent induction of apoptosis”. Moreover, in test [2], the “inhibition of IL-2 production” value was “inhibition of IL-2 production”.
In the case of `CC(C)[C@]12O[C@H]1[C@@H]1O[C@]13[C@]1(O[C@H]1C[C@H]1C4=C(CC[C@@]13C)C(=O)OC4)[C@@H]2OC(=O)CCC(=O)O` [triptolide 14-succinate], the tumor regression result in test [3] is given as “induced tumor regression”. Besides, the tumor growth inhibition result in test [3] (in comparison to 5-FU and CPT-11) was “strongly inhibited tumor growth”.
